IC50 data for 1 compound are collected here from patent US20250162994A1, “DUAL LSD1/HDAC INHIBITORS” (JUBILANT EPICORE LLC, priority 2022, published 2025).

Assay type in all cases: biochemical
One test concerns the target HDAC6 (Homo sapiens (Human), UniProt Q9UBN7). Kind of test: Histone deacetylase assay (BPS Biosciences), HDAC6. Particulars: human recombinant enzyme. How it is done: Histone deacetylase assay was done as per manufacturer's instructions. […] Fluorescence was measured at an excitation wavelength of 350-380 nm and emission wavelength of 440-480 nm.
The next test has as its target HDAC1 (Homo sapiens (Human), UniProt Q13547). The test can be described thus: Histone deacetylase assay (BPS Biosciences), HDAC1. Particulars: human recombinant enzyme. The protocol:
Histone deacetylase assay was done as per manufacturer's instructions. Briefly, assay buffer, 200 uM HDAC substrate (fluorogenic HDAC acetylated peptide substrate for class I HDACs (HDACs 1, 2 and 3) and class 2b HDACs (HDACs 6 and 10) and 1% BSA are taken as a master mixture and aliquoted as 40 uL per well. Compounds (10×) were diluted in assay buffer and were added to respective wells of a black 96 well plate. For HDAC1 (1.4 ng/μL) and for HDAC6 (7 ng/μL) human recombinant enzyme was thawed on ice and 5 μL of respective enzyme was added per well. The plate was incubated at 37° C. for 1 hour. Developer solution was then added (50 μL per well) and incubated at room temperature for 10 minutes. Fluorescence was measured at an excitation wavelength of 350-380 nm and emission wavelength of 440-480 nm.

Another test has as its target LSD1 (Homo sapiens (Human), UniProt O60341). The test can be described thus: TR-FRET assay for LSD1 (Perkin Elmer). How it is done: LSD1 enzyme was produced in house. Tranylcypromine (TCP), LSD1 inhibitor was procured from Selleckchem. LSD1 enzyme, TCP and Biotinylated peptide substrate were diluted in assay buffer just before use. 2× inhibitor (10 μL, diluted in assay buffer) or Assay Buffer, and 5 nM enzyme were added to a 96 well plate and incubated at room temperature for 30 min. […] Stop Solution containing 300 μM tranylcypromine in 1×LANCE Detection Buffer was added to the wells and incubated for 5 min at RT. Then, Detection mixture containing 2 nM Eu-Ab and 50 nM ULight-Streptavidin in 1×LANCE Detection Buffer was prepared and added to the reaction mixture. This mixture was incubated for 1 hour at room temperature.
(Time-resolved FRET reads energy transfer from a long-lived donor to a nearby acceptor.)

Bounds are passed on as bounds.

Sequence of HDAC1 (Q13547 whole entry): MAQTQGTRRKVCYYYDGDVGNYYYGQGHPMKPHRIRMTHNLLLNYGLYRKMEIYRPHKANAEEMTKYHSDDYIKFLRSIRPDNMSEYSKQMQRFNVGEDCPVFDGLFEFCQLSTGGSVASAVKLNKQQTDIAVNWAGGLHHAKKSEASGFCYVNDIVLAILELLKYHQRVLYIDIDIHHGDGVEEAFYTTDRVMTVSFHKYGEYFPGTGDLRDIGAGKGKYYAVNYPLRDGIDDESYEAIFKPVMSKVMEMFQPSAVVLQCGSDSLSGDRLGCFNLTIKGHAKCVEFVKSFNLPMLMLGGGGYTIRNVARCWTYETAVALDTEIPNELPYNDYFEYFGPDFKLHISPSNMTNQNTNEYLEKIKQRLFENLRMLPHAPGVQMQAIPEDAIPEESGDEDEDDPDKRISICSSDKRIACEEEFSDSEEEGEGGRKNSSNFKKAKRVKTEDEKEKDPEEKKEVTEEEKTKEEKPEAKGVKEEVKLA
Sequence of HDAC6 (Q9UBN7 whole entry): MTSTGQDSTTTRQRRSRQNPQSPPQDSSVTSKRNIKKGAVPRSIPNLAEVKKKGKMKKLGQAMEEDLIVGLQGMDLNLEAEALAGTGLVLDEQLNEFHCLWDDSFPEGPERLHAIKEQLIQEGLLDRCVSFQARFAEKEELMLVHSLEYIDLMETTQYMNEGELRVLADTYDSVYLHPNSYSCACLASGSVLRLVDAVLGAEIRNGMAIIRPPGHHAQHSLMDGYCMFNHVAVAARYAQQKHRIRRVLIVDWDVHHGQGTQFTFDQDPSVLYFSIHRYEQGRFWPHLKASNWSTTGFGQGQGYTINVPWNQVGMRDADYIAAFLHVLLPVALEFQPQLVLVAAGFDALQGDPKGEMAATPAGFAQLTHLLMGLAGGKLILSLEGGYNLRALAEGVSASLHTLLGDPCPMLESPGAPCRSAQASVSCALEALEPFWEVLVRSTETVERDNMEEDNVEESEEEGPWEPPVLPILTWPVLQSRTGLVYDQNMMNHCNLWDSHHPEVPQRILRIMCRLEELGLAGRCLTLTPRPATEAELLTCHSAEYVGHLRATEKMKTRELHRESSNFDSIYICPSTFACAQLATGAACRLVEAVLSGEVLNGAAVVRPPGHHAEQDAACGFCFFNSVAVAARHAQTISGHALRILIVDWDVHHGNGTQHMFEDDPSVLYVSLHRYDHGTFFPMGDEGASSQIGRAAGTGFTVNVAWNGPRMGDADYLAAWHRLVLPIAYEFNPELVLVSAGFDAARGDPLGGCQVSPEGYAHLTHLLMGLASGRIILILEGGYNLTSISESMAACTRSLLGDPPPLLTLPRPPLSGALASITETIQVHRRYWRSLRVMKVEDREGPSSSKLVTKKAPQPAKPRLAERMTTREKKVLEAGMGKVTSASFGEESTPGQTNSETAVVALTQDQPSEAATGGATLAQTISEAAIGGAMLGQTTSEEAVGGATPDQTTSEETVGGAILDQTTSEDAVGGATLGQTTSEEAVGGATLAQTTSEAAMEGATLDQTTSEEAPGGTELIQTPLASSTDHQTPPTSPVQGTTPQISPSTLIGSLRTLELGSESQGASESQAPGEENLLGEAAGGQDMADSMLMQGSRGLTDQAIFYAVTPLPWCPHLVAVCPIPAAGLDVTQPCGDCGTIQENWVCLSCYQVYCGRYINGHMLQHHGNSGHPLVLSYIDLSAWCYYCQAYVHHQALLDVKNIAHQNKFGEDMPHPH

As to `Nc1ccccc1NC(=O)c1ccc(Cn2cc(CN[C@@H]3C[C@H]3c3ccccc3)cn2)cc1` [Compound 30, N-(2-aminophenyl)-4-((4-((((1R,2S)-2-phenylcyclopropyl)amino)methyl)-1H-pyrazol-1-yl)methyl)benzamide], the half-maximal inhibitory concentration (IC50) at HDAC6 was > 10 µM; at HDAC1 it was 0.181 µM; against LSD1, 0.027 µM.

The term IC50 denotes the midpoint of a concentration-inhibition curve.
